The target of experiment [1] is T1, SARS-CoV-2 PLpro (nsp3 1564–1878) (Severe acute respiratory syndrome coronavirus 2, UniProt P0DTD1). In words: biochemical. Also noted: FRET-quenched peptide (Pro3) cleavage by PLpro, 10 min pre-incubation, slope over 20 min, normalised to no-compound control. The conditions noted are these: high concentration screen, read-out: % of control remaining.
Experiment [2] addresses T1, SARS-CoV-2 PLpro (nsp3 1564–1878). Briefly: biochemical. Conditions: low concentration screen, read-out: % of control remaining. Details: FRET-quenched peptide (Pro3) cleavage by PLpro, 10 min pre-incubation, slope over 20 min, normalised to no-compound control.

Counter-ions that a name gives are not always drawn. Like-named read-outs stand apart in the source and are kept apart here.

With `CNC(=O)c1ccccc1Sc1ccc2c(/C=C/c3ccccn3)n[nH]c2c1` [Axitinib], the remaining activity at 3.75 µM in experiment [1] (Well no.=2803) was 99.1%. Further, in experiment [2] (Well no.=2803), the remaining activity at 1.25 µM is 101%.

Turning to `OC(c1ccccc1)(c1ccccc1)C1CCNCC1` [Azacyclonol], the remaining activity at 3.75 µM in experiment [1] (Well no.=5068) was 103%. Also, in experiment [2] (Well no.=5068), the remaining activity at 1.25 µM was found to be 97.2%.

As to `O=C(CCCN1CCN(c2ccccn2)CC1)c1ccc(F)cc1` [Azaperone], the remaining activity at 3.75 µM in experiment [1] (Well no.=2163) was 103%; in experiment [1] (Well no.=6471) it was 101%. Also, the remaining activity at 1.25 µM in experiment [2] (Well no.=2163) was found to be 100%; in experiment [2] (Well no.=6471), 102%.

As for `CN1C(=O)COc2c(C(=O)NC3CN4CCC3CC4)cc(Cl)cc21` (centres unmarked) [Azasetron (hydrochloride)], the remaining activity at 3.75 µM in experiment [1] (Well no.=8243) came out at 96.1%. Moreover, the remaining activity at 1.25 µM in experiment [2] (Well no.=8243) came to 96.2%.

Regarding `CN1CCC(=C2c3ccccc3CCc3cccnc32)CC1` [Azatadine (dimaleate)], in experiment [1] (Well no.=7617), the remaining activity at 3.75 µM was determined as 105%. Moreover, in experiment [2] (Well no.=7617), the remaining activity at 1.25 µM is 103%.

Regarding `CN1CCC(=C2c3ccccc3CCc3cccnc32)CC1` [Azatadine dimaleate], the remaining activity at 3.75 µM in experiment [1] (Well no.=5036) stood at 102%. For the same compound, the remaining activity at 1.25 µM in experiment [2] (Well no.=5036) was determined as 99%.

As to `Cn1cnc([N+](=O)[O-])c1Sc1ncnc2[nH]cnc12` [Azathioprine], the results for the remaining activity at 3.75 µM in experiment [1] (Well no.=111) and in experiment [1] (Well no.=1834) were 100% and 97.6%, respectively. Also, the remaining activity at 1.25 µM turned out to be 99.7% in experiment [2] (Well no.=111) and 102% in experiment [2] (Well no.=1834).

`O=C(O)CCCCCCCC(=O)O` [Azelaic acid]: the remaining activity at 3.75 µM in experiment [1] (Well no.=243) was 98.7%; in experiment [1] (Well no.=6157), 105%. Moreover, the remaining activity at 1.25 µM in experiment [2] (Well no.=243) came to 100%; in experiment [2] (Well no.=6157) it was 108%.

Consider `CN1CCCC(n2nc(Cc3ccc(Cl)cc3)c3ccccc3c2=O)CC1` (centres unmarked) [Azelastine (hydrochloride)], for which the remaining activity at 3.75 µM in experiment [1] (Well no.=6173) came out at 105%. Besides, the remaining activity at 1.25 µM in experiment [2] (Well no.=6173) worked out at 103%.

For `CC1=C(C(=O)OC(C)C)C(c2cccc([N+](=O)[O-])c2)C(C(=O)OC2CN(C(c3ccccc3)c3ccccc3)C2)=C(N)N1` (centres unmarked) [Azelnidipine], in experiment [1] (Well no.=5275), the remaining activity at 3.75 µM came out at 93.3%. Further, the remaining activity at 1.25 µM in experiment [2] (Well no.=5275) was found to be 97.2%.

Turning to `CCOc1nc2cccc(C(=O)O)c2n1Cc1ccc(-c2ccccc2-c2noc(=O)[nH]2)cc1` [Azilsartan], the remaining activity at 3.75 µM in experiment [1] (Well no.=5416) was 95.7%; in experiment [1] (Well no.=6813), 89.9%. The remaining activity at 1.25 µM amounted to 97.2% in experiment [2] (Well no.=5416) and 90.2% in experiment [2] (Well no.=6813).

As to `CC[C@H]1OC(=O)[C@H](C)[C@@H](O[C@H]2C[C@@](C)(OC)[C@@H](O)[C@H](C)O2)[C@H](C)[C@@H](O[C@@H]2O[C@H](C)C[C@H](N(C)C)[C@H]2O)[C@](C)(O)C[C@@H](C)CN(C)[C@H](C)[C@@H](O)[C@]1(C)O` [Azithromycin], the remaining activity at 3.75 µM in experiment [1] (Well no.=2167) was 102%. For the same compound, in experiment [2] (Well no.=2167), the remaining activity at 1.25 µM was found to be 97.4%.

Turning to `CC1(C)S[C@@H]2[C@H](NC(=O)[C@H](NC(=O)N3CCNC3=O)c3ccccc3)C(=O)N2[C@H]1C(=O)O` [Azlocillin (sodium salt)], the remaining activity at 3.75 µM in experiment [1] (Well no.=7454) is 101%. Also, the remaining activity at 1.25 µM in experiment [2] (Well no.=7454) was found to be 94.9%.

Regarding `CC1(C)S[C@@H]2[C@H](NC(=O)[C@H](NC(=O)N3CCNC3=O)c3ccccc3)C(=O)N2[C@H]1C(=O)O` [Azlocillin sodium salt], in experiment [1] (Well no.=5356), the remaining activity at 3.75 µM was found to be 93.9%. Besides, the remaining activity at 1.25 µM in experiment [2] (Well no.=5356) amounted to 98.5%.

Turning to `c1ccc(/N=N/c2ccccc2)cc1` [Azobenzene], the remaining activity at 3.75 µM in experiment [1] (Well no.=8080) was found to be 101%. The remaining activity at 1.25 µM in experiment [2] (Well no.=8080) came out at 102%.

Regarding `O=[N+]([O-])c1ncc[nH]1` [Azomycin], the remaining activity at 3.75 µM in experiment [1] (Well no.=3571) came to 103%. Besides, the remaining activity at 1.25 µM in experiment [2] (Well no.=3571) worked out at 109%.

As for `CCCC(=O)NCCc1csc(-c2ccc(Cl)cc2)n1` [Azoramide], in experiment [1] (Well no.=8488), the remaining activity at 3.75 µM was found to be 99.7%. Also, in experiment [2] (Well no.=8488), the remaining activity at 1.25 µM turned out to be 98.4%.

Turning to `C[C@H]1[C@H](NC(=O)/C(=N\OC(C)(C)C(=O)O)c2csc(N)n2)C(=O)N1S(=O)(=O)O` [Aztreonam], the remaining activity at 3.75 µM in experiment [1] (Well no.=2169) is 102%. Moreover, in experiment [2] (Well no.=2169), the remaining activity at 1.25 µM is 103%.

For `C=CCN1CCc2nc(N)sc2CC1` [B-HT 920], the remaining activity at 3.75 µM in experiment [1] (Well no.=8195) is 100%. In experiment [2] (Well no.=8195), the remaining activity at 1.25 µM worked out at 99.9%.

Consider `CCN1CCc2nc(N)oc2CC1` [B-HT 933 dihydrochloride], for which the remaining activity at 3.75 µM in experiment [1] (Well no.=87) was found to be 105%. Besides, the remaining activity at 1.25 µM in experiment [2] (Well no.=87) stood at 102%.

Turning to `O=C(NCCCN1CCC2(CC1)OCc1ccccc12)[C@H]1CCCN1Cc1ccccc1` [BAN ORL 24], the remaining activity at 3.75 µM in experiment [1] (Well no.=6946) was determined as 102%. Also, the remaining activity at 1.25 µM in experiment [2] (Well no.=6946) turned out to be 97.7%.

`Cc1ccc(S(=O)(=O)/C=C/C#N)cc1` [BAY 11-7082]: the values for the remaining activity at 3.75 µM in experiment [1] (Well no.=79), in experiment [1] (Well no.=2360) and in experiment [1] (Well no.=6204) were 99.5%, 99.1% and 104%, respectively. Further, the remaining activity at 1.25 µM was 102% in experiment [2] (Well no.=79) and 98.2% in experiment [2] (Well no.=2360).

For `Nc1nc(-c2nn(Cc3ccccc3F)c3ncccc23)ncc1C1CC1` [BAY 41-2272], in experiment [1] (Well no.=7717), the remaining activity at 3.75 µM amounted to 94.6%. In addition, the remaining activity at 1.25 µM in experiment [2] (Well no.=7717) turned out to be 102%.

For `CCn1c(=O)c2c(C)c(C(=O)N3CCC(O)CC3)sc2n(CCC(F)(F)F)c1=O` [BAY-545], the remaining activity at 3.75 µM in experiment [1] (Well no.=8597) turned out to be 104%. In addition, the remaining activity at 1.25 µM in experiment [2] (Well no.=8597) was found to be 106%.

Turning to `CC(=O)C1=C(C)N(c2cccc(C(F)(F)F)c2)C(=O)N[C@@H]1c1ccc(C#N)nc1` [BAY-678], the remaining activity at 3.75 µM in experiment [1] (Well no.=7734) was 101%. Further, in experiment [2] (Well no.=7734), the remaining activity at 1.25 µM worked out at 97.9%.

`Cc1c(NC(=O)c2cc(C(N)=O)nc3cc(F)ccc23)c(C(F)(F)F)nn1Cc1ccc(C#N)cc1` [BAY-876]: in experiment [1] (Well no.=8680), the remaining activity at 3.75 µM came out at 98.3%. Also, the remaining activity at 1.25 µM in experiment [2] (Well no.=8680) was 101%.

In the case of `CN1CCN(CCc2ccc(Cl)c(Cl)c2)CC1` [BD1063 (dhydrochloride)], the remaining activity at 3.75 µM in experiment [1] (Well no.=8057) stood at 95.3%. Besides, the remaining activity at 1.25 µM in experiment [2] (Well no.=8057) was 90.2%.

For the compound `CN(C)CCN(C)CCc1ccc(Cl)c(Cl)c1` [BD 1047 dihydrobromide], in experiment [1] (Well no.=5470), the remaining activity at 3.75 µM came to 108%. The remaining activity at 1.25 µM in experiment [2] (Well no.=5470) came to 101%.

In the case of `CN(C)CCN(C)CCc1ccc(Cl)c(Cl)c1` [BD-1047 (dihydrobromide)], the remaining activity at 3.75 µM in experiment [1] (Well no.=7287) is 97.8%. The remaining activity at 1.25 µM in experiment [2] (Well no.=7287) came to 95.4%.

For the compound `N[C@@H](CSCCB(O)O)C(=O)O` [BEC (hydrochloride)], in experiment [1] (Well no.=8165), the remaining activity at 3.75 µM amounted to 103%. The remaining activity at 1.25 µM in experiment [2] (Well no.=8165) came to 105%.
